The record followed here is patent EP0761679A1, “N-Butylsulfonate esters of estrogens” (ELI LILLY AND COMPANY, priority 1995, dated 1997).

This assay concerns ovariectomized rat. Put plainly: ovariectomized (ovex) rat model, uterine wet weight after four days of oral treatment. Format: in vivo, Sprague Dawley rats. The conditions noted are these: 96 h, 0.1 mg/kg P.O. (gavage in 0.5 mL of 1% carboxymethylcellulose suspension), ovariectomized female rats, read-out: Uterine weight as percent control @ 0.1 mg/kg P.O. On the procedure: Seventy-five day old female Sprague Dawley rats (weight range of 225-275 g) were obtained from Charles River Laboratories (Portage, MI). The animals were either bilaterally ovariectomized or exposed to a sham surgical procedure at Charles River Laboratories, and then shipped after one week. They were housed in groups of three and had ad libitum access to food and water. Room temperature was maintained at 22.2° C with 40% relative humidity. The photo-period was 12 hours of light and 12 hours of darkness. One week after arrival (thus, 14 days post-ovariectomy), the rats were treated with vehicle, 17-α-ethinyl estradiol, parent hydroxy estrogens, or a compound of formula I was initiated. After four days of treatment, blood was collected by cardiac puncture, the animals were sacrificed by carbon dioxide asphyxiation and the uteri were removed and wet weight determined. […] All compounds were given by oral dosage (gavage in 0.5 mL of 1% carboxymethylcellulose suspension). For comparison purposes, the data represented are for 0.1 mg/kg for all compounds. The positive control was 0.1 mg/kg of 17-α-ethinyl estradiol, a known, orally available estrogen.

Molecules are shown by their SMILES.

For the compound `C[C@]12CC[C@@H]3c4ccc(OS(C)(=O)=O)cc4CC[C@H]3[C@@H]1CC[C@@H]2OS(C)(=O)=O` [3,17-β-di-methanesulfonoyl estradiol], the response vs control in vivo at 0.1 mg/kg was 0%.

Take `CCCCS(=O)(=O)Oc1ccc2c(c1)CC[C@@H]1[C@@H]2CC[C@]2(C)[C@@H](OS(=O)(=O)CCCC)CC[C@@H]12` [3,17-β-di-n-butylsulfonoyl estradiol]: the response vs control in vivo at 0.1 mg/kg amounted to 112%.

As for `C[C@]12CC[C@@H]3c4ccc(OS(C)(=O)=O)cc4CC[C@H]3[C@@H]1CCC2=O` [3-methanesulfonoyl estrone], the response vs control in vivo at 0.1 mg/kg worked out at 0%.

As to `C[C@]12CC[C@@H]3c4ccc(OS(C)(=O)=O)cc4CC[C@H]3[C@@H]1CC[C@@H]2O` [3-methanesulfonoyl-17-β-estradiol], the response vs control in vivo at 0.1 mg/kg is 17%.

In the case of `CCCCS(=O)(=O)Oc1ccc2c(c1)CC=C1[C@@H]2CC[C@]2(C)C(=O)CC[C@@H]12` [3-n-butylsulfonoyl equilin], the response vs control in vivo at 0.1 mg/kg stood at 119%.

For `CCCCS(=O)(=O)Oc1ccc2c(c1)CC[C@@H]1[C@@H]2CC[C@]2(C)C(=O)CC[C@@H]12` [3-n-butylsulfonyl estrone, 3-n-butylsulfonoyl estrone], the response vs control in vivo at 0.1 mg/kg is 67%.

Turning to `C[C@]12CC[C@@H]3c4ccc(OS(=O)(=O)c5ccccc5)cc4CC[C@H]3[C@@H]1CCC2=O` [3-phenylsulfonoyl estrone], the response vs control in vivo at 0.1 mg/kg came out at 10%.

In the case of `C[C@]12CC[C@@H]3c4ccc(OS(=O)(=O)c5ccccc5)cc4CC[C@H]3[C@@H]1CC[C@@H]2O` [3-phenylsulfonoyl-17-β-estradiol], the response vs control in vivo at 0.1 mg/kg was 0%.

Take `C[C@]12CC[C@@H]3c4ccc(O)cc4CC[C@H]3[C@@H]1CC[C@@H]2O` [17-β-estradiol]: the response vs control in vivo at 0.1 mg/kg is 43%.

For `C[C@]12CC[C@H]3C(=CCc4cc(O)ccc43)[C@@H]1CCC2=O` [Equilin], the response vs control in vivo at 0.1 mg/kg turned out to be 47%.

On to `C[C@]12CC[C@@H]3c4ccc(O)cc4CC[C@H]3[C@@H]1CCC2=O` [Estrone], for which the response vs control in vivo at 0.1 mg/kg was determined as 35%.
